Test results published in patent US11530197B2, “Analogs for the treatment of disease” (Insilico Medicine IP Limited, priority 2021, dated 2022).
Read-outs that look alike come from different tables or passages of the source.

Key:
TNIK(h) = TNIK(h) (Homo sapiens (Human), UniProt Q9UKE5); experiment: TNIK Human STE Kinase Enzymatic Radiometric Assay; type: biochemical;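 note: remaining kinase activity relative to DMSO control, compound added without preincubation, reaction started with ATP, IC50 from variable-slope sigmoidal dose-response fit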
Sequence of TNIK(h) (Q9UKE5 whole entry): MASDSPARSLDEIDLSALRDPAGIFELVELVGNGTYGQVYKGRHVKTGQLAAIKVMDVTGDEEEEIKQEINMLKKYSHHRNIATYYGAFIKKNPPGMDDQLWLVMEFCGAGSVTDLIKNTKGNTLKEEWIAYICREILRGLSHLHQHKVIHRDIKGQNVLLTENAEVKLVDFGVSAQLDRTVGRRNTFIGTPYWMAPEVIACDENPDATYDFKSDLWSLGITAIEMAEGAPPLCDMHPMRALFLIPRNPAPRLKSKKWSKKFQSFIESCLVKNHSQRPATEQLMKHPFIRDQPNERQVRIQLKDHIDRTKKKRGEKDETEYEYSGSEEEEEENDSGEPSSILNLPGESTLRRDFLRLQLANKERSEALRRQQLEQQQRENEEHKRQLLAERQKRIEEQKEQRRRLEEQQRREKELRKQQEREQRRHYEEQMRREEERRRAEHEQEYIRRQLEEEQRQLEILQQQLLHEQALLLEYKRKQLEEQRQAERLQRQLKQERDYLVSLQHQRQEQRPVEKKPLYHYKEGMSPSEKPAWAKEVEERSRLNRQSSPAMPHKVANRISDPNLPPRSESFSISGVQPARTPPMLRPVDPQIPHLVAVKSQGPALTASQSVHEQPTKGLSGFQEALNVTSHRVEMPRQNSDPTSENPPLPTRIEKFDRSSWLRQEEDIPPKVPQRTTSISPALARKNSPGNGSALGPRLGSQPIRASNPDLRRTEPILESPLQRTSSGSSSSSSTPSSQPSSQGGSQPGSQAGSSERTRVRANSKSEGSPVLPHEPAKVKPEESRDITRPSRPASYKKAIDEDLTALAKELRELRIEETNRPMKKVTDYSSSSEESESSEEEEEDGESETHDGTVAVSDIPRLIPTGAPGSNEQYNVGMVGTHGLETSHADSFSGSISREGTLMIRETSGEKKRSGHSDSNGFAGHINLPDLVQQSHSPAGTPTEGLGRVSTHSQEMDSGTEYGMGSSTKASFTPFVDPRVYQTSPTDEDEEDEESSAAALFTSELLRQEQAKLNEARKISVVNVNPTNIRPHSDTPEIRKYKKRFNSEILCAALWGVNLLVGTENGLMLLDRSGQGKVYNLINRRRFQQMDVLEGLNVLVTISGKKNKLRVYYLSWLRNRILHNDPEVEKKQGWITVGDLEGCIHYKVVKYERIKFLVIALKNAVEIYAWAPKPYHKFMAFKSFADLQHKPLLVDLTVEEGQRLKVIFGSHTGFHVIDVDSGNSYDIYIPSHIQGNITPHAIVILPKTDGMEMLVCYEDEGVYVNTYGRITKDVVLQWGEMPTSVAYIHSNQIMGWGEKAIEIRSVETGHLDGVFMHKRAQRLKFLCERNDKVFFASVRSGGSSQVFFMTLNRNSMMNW
Description: (§1) The reaction is initiated by the addition of the Mg/ATP mix. After incubation for 40 minutes at room temperature, the reaction is stopped by the addition of phosphoric acid to a concentration of 0.5%.
INCUBATION: 40 min at Room temperature
COMPOUND DILUTION SCHEME: All compounds supplied were prepared to a working stock of 50× final assay concentration in 100% DMSO. Where appropriate, more concentrated stocks were diluted manually to 50× using 100% DMSO. Compounds supplied as powders were reconstituted to a 10 mM stock in 100% DMSO before further dilution to 50×. ASSAY PROCEDURE: The required volume of the 50× stock of test compound was added to the assay before a reaction mix containing the enzyme and substrate was added. The reaction was initiated by the addition of ATP at the selected concentration. There was no pre-incubation of the compound with the enzyme/substrate mix prior to ATP addition. […] Results are expressed as kinase activity remaining, as a percentage of the DMSO control. This is calculated using the following formula:
(§2) For IC50 determinations, data are analyzed using XLFit version 5.3 (ID Business Solutions). Sigmoidal dose-response (variable slope) curves are fit based on the mean result for each test concentration using non-linear regression analysis. Where the top and/or bottom of the curve fall >10% out with 100 and 0, respectively, either or both of these limits may be constrained at 100 and 0, provided that the QC criterion on R2 is met.

MAP4K4 (h) = MAP4K4 (h) (Homo sapiens (Human), UniProt O95819); experiment: MAP4K4 Human STE Kinase Enzymatic Radiometric Assay; type: biochemical; conditions: ATP 200 μM; 40 min at room temperature;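 note: kinase activity remaining relative to the DMSO control, IC50 derived from sigmoidal variable-slope curve fits, no preincubation of compound with enzyme before ATP start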
Sequence of MAP4K4 (h) (O95819 whole entry): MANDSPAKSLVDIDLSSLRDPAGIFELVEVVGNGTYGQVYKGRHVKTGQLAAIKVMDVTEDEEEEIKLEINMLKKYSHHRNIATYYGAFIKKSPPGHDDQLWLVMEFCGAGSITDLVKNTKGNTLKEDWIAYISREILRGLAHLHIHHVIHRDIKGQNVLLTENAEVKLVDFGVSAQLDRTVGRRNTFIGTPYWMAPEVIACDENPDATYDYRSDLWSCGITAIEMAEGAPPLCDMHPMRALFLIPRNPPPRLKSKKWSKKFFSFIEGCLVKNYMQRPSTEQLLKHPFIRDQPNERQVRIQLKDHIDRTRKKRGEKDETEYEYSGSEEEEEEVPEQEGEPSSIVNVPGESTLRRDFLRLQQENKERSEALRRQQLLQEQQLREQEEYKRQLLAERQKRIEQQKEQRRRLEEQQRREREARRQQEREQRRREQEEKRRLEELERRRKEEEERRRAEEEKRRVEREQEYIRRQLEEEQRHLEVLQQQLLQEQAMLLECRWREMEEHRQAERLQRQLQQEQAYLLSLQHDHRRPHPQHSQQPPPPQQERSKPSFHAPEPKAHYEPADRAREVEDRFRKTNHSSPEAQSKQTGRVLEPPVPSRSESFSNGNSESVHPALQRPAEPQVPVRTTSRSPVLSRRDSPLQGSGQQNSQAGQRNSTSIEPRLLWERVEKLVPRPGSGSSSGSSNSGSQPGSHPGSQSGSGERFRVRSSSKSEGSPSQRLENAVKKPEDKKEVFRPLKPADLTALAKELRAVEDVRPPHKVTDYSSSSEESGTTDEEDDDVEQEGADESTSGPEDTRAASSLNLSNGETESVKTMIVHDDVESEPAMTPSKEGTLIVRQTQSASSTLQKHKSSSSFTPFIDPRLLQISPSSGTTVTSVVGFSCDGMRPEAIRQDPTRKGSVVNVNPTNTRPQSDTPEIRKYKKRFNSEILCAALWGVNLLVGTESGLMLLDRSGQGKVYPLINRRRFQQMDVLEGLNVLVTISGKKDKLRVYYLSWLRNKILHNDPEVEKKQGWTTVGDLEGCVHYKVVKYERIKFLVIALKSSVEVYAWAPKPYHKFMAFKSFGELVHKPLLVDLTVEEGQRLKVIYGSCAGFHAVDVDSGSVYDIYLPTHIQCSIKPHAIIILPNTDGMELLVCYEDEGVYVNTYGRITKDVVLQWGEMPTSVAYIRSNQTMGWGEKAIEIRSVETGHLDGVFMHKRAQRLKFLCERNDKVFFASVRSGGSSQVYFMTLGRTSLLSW
Description: as §1
INCUBATION: 40 min at Room temperature
COMPOUND DILUTION SCHEME: All compounds supplied were prepared to a working stock of 50× final assay concentration in 100% DMSO. Where appropriate, more concentrated stocks were diluted manually to 50× using 100% DMSO. Compounds supplied as powders were reconstituted to a 10 mM stock in 100% DMSO before further dilution to 50×.
ASSAY PROCEDURE: The required volume of the 50× stock of test compound was added to the assay before a reaction mix containing the enzyme and substrate was added. The reaction was initiated by the addition of ATP at the selected concentration. There was no pre-incubation of the compound with the enzyme/substrate mix prior to ATP addition.
Results are expressed as kinase activity remaining, as a percentage of the DMSO control. This is calculated using the following formula: Mean of Sample Counts−Mean of Blank Counts/Mean of Control Counts
as §2

[1] = tested on: Collagen I (COL1A1) in LX-2 cells; experiment: Collagen and Alpha-SMA in LX-2 (Western blot after TGF-β stimulation); type: cell-based; conditions: Homo sapiens, 4 ng/ml TGF-β for 48 hours, Collagen I normalized to GAPDH;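 note: cells serum-starved in 0.4% FBS before treatment, lysates analysed by Western blot, DMSO-only wells as blank and TGF-β alone as maximal induction control, three independent experiments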
Description: 3 ml of 0.25% Trypsin-EDTA solution was then added and cells were incubated at 37° C. for 5 min for each T150-flask. 7 ml of culture medium was added to stop trypsinization. The cells were centrifuged at 300×g for 5 min. Supernatant medium was discarded and cells were re-suspended with fresh culture medium. The cells were counted with Cell viability analyzer. 5.0E+05 cells/well were seeded into 6-well plate containing 2.0 mL of culture medium. The cells were cultured overnight at 37° C. The next day, the complete medium was replaced with medium with 0.4% FBS for starvation. […] In parallel, medium containing only DMSO and TGF-β was used as blank control and positive control, respectively. TGF-β induction was used as maximum induction positive control. The culture medium was discarded at the end of induction. Cells were washed once using ice-cold DPBS. RIPA buffer was added to lyse the cells for 20 min. The cells were then scraped off the culture plate, collected in a tube and centrifuged. The supernatant was stored at −80° C. The total amount of protein in the lysate was determined using BCA Protein Assay kit. The cell treatment of fibrosis assay was performed in three independent experiments for each compound.
All the lysate samples were adjusted to the same protein concentration with RIPA buffer after BCA assay. […] The denatured samples were used for electrophoresis. Western blot was performed according to the standard protocols. The same volume of protein was loaded onto 4-12% Bis-Tris gel. Duplicate lysates of samples were loaded onto two gels. The gels were run for 0.5 h at 80 V and 120 V for another 1 h. When the electrophoresis was completed, the gels containing target protein Collagen I (COL1A1) were transferred onto NC membrane using Trans-Blot Electrophoretic Transfer Cell for 90 min at 100 V. The iBlot™ 2 Gel Transfer Device was used to transfer α-SMA and GAPDH at 20 V for 7 min. All the membranes were blocked in TBST buffer with 5% nonfat dry milk in at RT for 1 h and then incubated with primary antibody anti-COL1A1 and anti-α-SMA in TBST buffer containing 5% BSA at 4° C. overnight. For GAPDH detection, the membrane with α-SMA immunoblots were stripped with Restore™ Western Blot Stripping Buffer after detection. And the membranes were re-blocked and then re-probed with primary antibody anti-GAPDH antibody at room temperature (RT) for 2 h. After incubation with primary antibodies, membranes were washed with TBST, then incubated with the secondary antibody at RT for 1 h. Blots were visualized using the instrument Image Quant LAS-4000. The chemiluminescent signals derived from ECL Western blotting reagents were captured. The bands integrated intensity from 16-bit blot images was used for quantitation with the software (1D component of ImageQuant TL). The quantification raw data of the two duplicated gels was obtained from ImageQuant TL. Collagen I and α-SMA proteins expression level was normalized to GAPDH for each gel. The average normalization data of the two duplicated gels was calculated and applied to calculate IC50 using an equation for a sigmoidal dose response (variable slope) of GraphPad™ Prism software. The equation is Y=Bottom+(Top-Bottom)/(1+10^((Log IC50−X)*Hillslope). Note: X is the logarithm of compound concentration, Y is the average normalization data

[2] = Metabolic stability in human liver microsomes; type: in vitro ADME; conditions: LM Clint; 1 μM test compound, 0.5 mg protein/mL microsome, 37° C., up to 60 min;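 note: NADPH-supplemented human liver microsomes sampled at 0, 5, 10, 20, 30 and 60 min, parent compound quantified by LC-MS/MS, intrinsic clearance from first-order decay, no-cofactor incubation as control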
Description: Test Compound an Control Working Solution Preparation: Working solution: 5 μL of compound and control stock solution (10 mM in dimethyl sulfoxide (DMSO)) were diluted with 495 µL of acetonitrile (ACN) (intermediate solution concentration: 100 μM, 99% ACN).
Preparation Procedure: The appropriate amount of NADPH powder was weighed and diluted into a 10 mM MgCl2 solution (working solution concentration: 10 unit/mL; final concentration in reaction system: 1 unit/mL).
Preparation Procedure: The appropriate concentrations of microsome working solutions were prepared in 100 mM potassium phosphate buffer.
Stop Solution Preparation: Cold (4° C.) acetonitrile (ACN) containing 200 ng/mL tolbutamide and 200 ng/mL labetalol as internal standards (IS) was used as the stop solution.
Dilute liver microsomes to 0.56 mg/mL in 100 mM phosphate buffer.
Transfer 445 μL microsome working solutions (0.56 mg/mL) into pre-warmed ‘Incubation’ plates T60 and NCF60, Then pre-incubate ‘Incubation’ plates T60 and NCF60 for 10 min at 37° C. with constant shaking. Transfer 54 μL liver microsomes to blank plate, then add 6 μL NAPDH cofactor to blank plate, and then add 180 μL quenching solution to blank plate.
2.5.4 Add 5 μL compound working solution (100 μM) into ‘incubation’ plates (T60 and NCF60) containing microsomes and mix 3 times thoroughly.
For the NCF60 plate, add 50 μL of buffer and mix 3 times thoroughly. Start timing; plate will be incubated at 37° C. for 60 min while shaking.
For the T60 plate, mix 3 times thoroughly, and immediately remove 54 μL mixture for the 0-min time point to ‘Quenching’ plate. Then add 44 μL NAPDH cofactor to incubation plate (T60). Start timing; plate will be incubated at 37° C. for 60 min while shaking.
At 5, 10, 20, 30, and 60 min, add 180 μL quenching solution to ‘Quenching’ plates, mix once, and serially transfer 60 μL sample from T60 plate per time point to ‘Quenching’ plates.
For NCF60: mix once, and transfer 60 μL sample from the NCF60 incubation to ‘Quenching’ plate containing quenching solution at the 60-min time point.
All sampling plates are shaken for 10 min, then centrifuged at 4000 rpm for 20 minutes at 4° C.
Transfer 80 μL supernatant into 240 μL HPLC water, and mix by plate shaker for 10 min.
Each bioanalysis plate was sealed and shaken for 10 minutes prior to LC-MS/MS analysis.
The equation of first order kinetics was used to calculate T½ and Intrinsic clearance (CLint mic) in (L/min/mg).

[3] = ATP 70 μM, 40 min at room temperature, read-out: TNIK (IC50)

SMILES | IC50 (TNIK(h); [3]) [nM] | IC50 (MAP4K4 (h)) [nM] | IC50 [1] [nM] | Human Liver Microsome (μM/min/mg) [2] | IC50 (TNIK(h)) [nM]
CC(C)n1cnc(-c2ccc(F)cc2)c1-c1nc(C(=O)Nc2ccc(CCO)cc2)c[nH]1 [Compound 111, 5′-(4-fluorophenyl)-N-(4-(2-hydroxyethyl)phenyl)-3′-isopropyl-1H,3′H-[2,4′-biimidazole]-4-carboxamide] | 12 to 120 | > 120 | 0.1 to 1 | ++ (10-100 μM/min/mg as ++) | 
CC(C)n1cnc(-c2ccc(F)cc2)c1-c1nc(C(=O)Nc2ccc(N(CCO)CCO)cc2)c[nH]1 [Compound 116, N-(4-(bis(2-hydroxyethyl)amino)phenyl)-5′-(4-fluorophenyl)-3′-isopropyl-1H,3′H-[2,4′-biimidazole]-4-carboxamide] | 12 to 120 | 12 to 120 | 0.1 to 1 | +++ (1-10 μM/min/mg as +++) | 
CC(C)n1cnc(-c2ccc(F)cc2)c1-c1nc(C(=O)Nc2ccc(N3CCN(CCO)CC3)cc2)c[nH]1 [Compound 117, 5′-(4-fluorophenyl)-N-(4-(4-(2-hydroxyethyl)piperazin-1-yl)phenyl)-3′-isopropyl-1H,3′H-[2,4′-biimidazole]-4-carboxamide] | 12 to 120 | 12 to 120 | 0.1 to 1 | ++ (10-100 μM/min/mg as ++) | 
CN1CCN(c2ccc(NC(=O)c3c[nH]c(-c4c(-c5ccc(F)cc5)ncn4CC(F)(F)F)n3)cc2)CC1 [Compound 120, 5′-(4-fluorophenyl)-N-(4-(4-methylpiperazin-1-yl)phenyl)-3′-(2,2,2-trifluoroethyl)-1H,3′H-[2,4′-biimidazole]-4-carboxamide] | 12 to 120 | > 120 | < 0.1 | ++ (10-100 μM/min/mg as ++) | 
CC(C)n1cnc(-c2ccc(F)cc2)c1-c1ccc(C(=O)Nc2ccc(N3CCN(C)CC3)cc2)o1 [Compound 121, 5-(4-(4-fluorophenyl)-1-isopropyl-1H-imidazol-5-yl)-N-(4-(4-methylpiperazin-1-yl)phenyl)furan-2-carboxamide] | 1 to 12 | 12 to 120 | < 0.1 | + (>100 μM/min/mg as +) | 
CC(C)n1cnc(-c2ccc(F)cc2)c1-c1ccc(C(=O)Nc2ccc(CCO)cc2)o1 [Compound 126, 5-(4-(4-fluorophenyl)-1-isopropyl-1H-imidazol-5-yl)-N-(4-(2-hydroxyethyl)phenyl)furan-2-carboxamide] | 12 to 120 | 12 to 120 | 0.1 to 1 | + (>100 μM/min/mg as +) | 
CC(C)n1cnc(-c2ccc(F)cc2)c1-c1cccc(C(=O)Nc2ccc(N3CCN(C)CC3)cc2)n1 [Compound 127] | 1 to 12 | 1 to 12 | 0.1 to 1 | + (>100 μM/min/mg as +) | 
CC(C)n1cnc(-c2ccc(F)cc2)c1-c1cccc(C(=O)Nc2ccc(N3CCN(CCO)CC3)cc2)n1 [Compound 128] | 1 to 12 | 1 to 12 | 0.1 to 1 | + (>100 μM/min/mg as +) | 
CN1CCN(c2ccc(NC(=O)c3c[nH]c(-c4c(-c5ccc(F)cc5)ncn4C(F)F)n3)cc2)CC1 [Compound 130, 3′-(difluoromethyl)-5′-(4-fluorophenyl)-N-(4-(4-methylpiperazin-1-yl)phenyl)-1H,3′H-[2,4′-biimidazole]-4-carboxamide] | 12 to 120 | > 120 | 0.1 to 1 | ++ (10-100 μM/min/mg as ++) | 
CC(C)n1cnc(-c2ccc(F)cc2)c1-c1cccc(C(=O)Nc2ccc(CCC(=O)O)cc2)n1 [Compound 131] | 1 to 12 | 12 to 120 | 0.1 to 1 | +++ (1-10 μM/min/mg as +++) | 
CC(C)n1cnc(-c2ccc(Cl)cc2)c1-c1nc(C(=O)Nc2ccc(N3CCN(CCO)CC3)cc2)c[nH]1 [Compound 139, 5′-(4-chlorophenyl)-N-(4-(4-(2-hydroxyethyl)piperazin-1-yl)phenyl)-3′-isopropyl-1H,3′H-[2,4′-biimidazole]-4-carboxamide] | 12 to 120 | > 120 | 0.1 to 1 | ++ (10-100 μM/min/mg as ++) | 
CC(C)n1cnc(-c2ccc(F)c(F)c2)c1-c1nc(C(=O)Nc2ccc(N3CCN(CCO)CC3)cc2)c[nH]1 [Compound 146, 5′-(3,4-difluorophenyl)-N-(4-(4-(2-hydroxyethyl)piperazin-1-yl)phenyl)-3′-isopropyl-1H,3′H-[2,4′-biimidazole]-4-carboxamide] | 12 to 120 | > 120 | 0.1 to 1 | ++ (10-100 μM/min/mg as ++) | 
CC(C)n1cnc(-c2ccc(F)c(F)c2)c1-c1nc(C(=O)Nc2ccc(N3CCN(C)CC3)cc2)c[nH]1 [Compound 156, 5′-(3,4-difluorophenyl)-3′-isopropyl-N-(4-(4-methylpiperazin-1-yl)phenyl)-1H,3′H-[2,4′-biimidazole]-4-carboxamide] |  | > 120 | < 0.1 | ++ (10-100 μM/min/mg as ++) | 12 to 120
CN1CCN(c2ccc(NC(=O)c3c[nH]c(-c4c(-c5ccc(F)cc5)ncn4[C@H]4CC[C@H](O)CC4)n3)cc2)CC1 [Compound 159, 5′-(4-fluorophenyl)-3′-((1r,4r)-4-hydroxycyclohexyl)-N-(4-(4-methylpiperazin-1-yl)phenyl)-1H,3′H-[2,4′-biimidazole]-4-carboxamide] | 1 to 12 | 12 to 120 | 0.1 to 1 | ++ (10-100 μM/min/mg as ++) | 
O=C(Nc1ccc(N2CCNCC2)cc1)c1c[nH]c(-c2c(-c3ccc(F)cc3)ncn2CC(F)(F)F)n1 [Compound 167, 5′-(4-fluorophenyl)-N-(4-(piperazin-1-yl)phenyl)-3′-(2,2,2-trifluoroethyl)-1H,3′H-[2,4′-biimidazole]-4-carboxamide] | 12 to 120 | > 120 | < 0.1 | ++ (10-100 μM/min/mg as ++) | 
CN1CCN(c2ccc(NC(=O)c3c[nH]c(-c4c(-c5ccc(F)cc5)ncn4C4CCC(O)CC4)n3)cc2)CC1 (centres unmarked) [Compound 172] |  |  | < 0.1 | +++ (1-10 μM/min/mg as +++) | 
CC1CN(c2ccc(NC(=O)c3c[nH]c(-c4c(-c5ccc(F)cc5)ncn4C(C)C)n3)cc2)CC(C)N1C (centres unmarked) [Compound 196, 5′-(4-fluorophenyl)-3′-isopropyl-N-(4-(3,4,5-trimethylpiperazin-1-yl)phenyl)-1H,3′H-[2,4′-biimidazole]-4-carboxamide] | 12 to 120 | 12 to 120 | < 0.1 |  | 
